# Assay results: patent publication US8232406B2, “c-MET protein kinase inhibitors” (Vertex Pharmaceuticals Incorporated, priority 2006, dated 2012)
# Biological target: c-MET (Homo sapiens, UniProt P08581)
# Assay: Ki determination for the inhibition of c-MET (standard radiometric 33P-ATP kinase assay, polyE4Y substrate)
# Type: biochemical
# Details: 1.0 nM c-Met, 35 μM ATP, 0.5 mg/mL polyE4Y, 20 min; competitive tight-binding fit
# In short: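 Radiometric assay of 33P transfer from 33P-ATP (35 μM) to polyE4Y (0.5 mg/mL) by 1.0 nM c-Met in 100 mM HEPES pH 7.5, 10 mM MgCl2, 25 mM NaCl, 0.01% BSA, 1 mM DTT. TCA-quenched after 20 min, filter-captured, scintillation-counted; Ki fitted to a competitive tight-binding model.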
# c-MET, sequence (P08581 25-1390): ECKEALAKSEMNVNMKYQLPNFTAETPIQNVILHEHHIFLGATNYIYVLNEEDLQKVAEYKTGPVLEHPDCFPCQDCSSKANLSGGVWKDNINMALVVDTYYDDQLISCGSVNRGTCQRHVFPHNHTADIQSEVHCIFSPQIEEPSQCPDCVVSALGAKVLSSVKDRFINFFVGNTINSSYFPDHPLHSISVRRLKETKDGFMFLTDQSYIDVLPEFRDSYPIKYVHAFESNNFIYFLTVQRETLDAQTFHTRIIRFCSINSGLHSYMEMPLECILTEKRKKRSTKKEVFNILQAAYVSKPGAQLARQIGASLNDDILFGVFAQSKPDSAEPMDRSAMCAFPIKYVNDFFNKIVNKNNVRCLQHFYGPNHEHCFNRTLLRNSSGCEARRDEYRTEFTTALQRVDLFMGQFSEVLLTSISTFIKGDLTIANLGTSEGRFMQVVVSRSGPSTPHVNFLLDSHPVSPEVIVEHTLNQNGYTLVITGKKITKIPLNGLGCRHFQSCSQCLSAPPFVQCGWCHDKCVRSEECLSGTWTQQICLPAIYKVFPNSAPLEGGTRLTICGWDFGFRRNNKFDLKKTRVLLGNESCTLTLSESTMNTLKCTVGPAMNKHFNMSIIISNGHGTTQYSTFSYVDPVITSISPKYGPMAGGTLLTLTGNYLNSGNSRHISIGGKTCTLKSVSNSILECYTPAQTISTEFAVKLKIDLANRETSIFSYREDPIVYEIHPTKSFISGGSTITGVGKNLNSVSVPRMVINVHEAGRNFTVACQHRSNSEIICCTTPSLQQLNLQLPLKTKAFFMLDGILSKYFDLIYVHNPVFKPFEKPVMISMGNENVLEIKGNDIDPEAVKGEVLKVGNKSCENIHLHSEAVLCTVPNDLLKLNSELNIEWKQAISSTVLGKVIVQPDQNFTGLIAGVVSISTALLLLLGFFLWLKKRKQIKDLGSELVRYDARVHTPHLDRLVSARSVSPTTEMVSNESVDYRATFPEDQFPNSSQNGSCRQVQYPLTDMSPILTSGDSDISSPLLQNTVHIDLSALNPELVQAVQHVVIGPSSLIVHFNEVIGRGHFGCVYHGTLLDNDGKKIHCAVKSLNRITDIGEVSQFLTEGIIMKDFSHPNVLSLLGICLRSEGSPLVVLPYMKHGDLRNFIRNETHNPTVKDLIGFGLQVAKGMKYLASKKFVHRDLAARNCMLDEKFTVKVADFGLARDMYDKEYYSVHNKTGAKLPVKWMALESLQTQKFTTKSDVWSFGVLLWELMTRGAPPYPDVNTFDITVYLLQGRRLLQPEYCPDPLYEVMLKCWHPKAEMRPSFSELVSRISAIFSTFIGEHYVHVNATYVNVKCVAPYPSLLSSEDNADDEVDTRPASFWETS
row,SMILES,Ki [nM]
1,COCCOC(=O)N1CCC(n2cc(-c3cnc(N)c(-c4nnnn4-c4cccc(Cl)c4F)c3)cn2)CC1 [I-A-440],≤ 100
2,Nc1ncc(-c2cnn(C3CCN(C(=O)C(F)(F)F)CC3)c2)cc1-c1nnnn1-c1cccc(F)c1Cl [I-A-395],100 to 1000
3,Nc1ncc(-c2ccsc2)cc1-c1nnnn1-c1cccc(F)c1F [I-A-143],≤ 100
4,"Nc1ncc(-c2cc3c(s2)CNCC3)cc1-c1nnnn1-c1cccc(F)c1F [I-A-492, 3-(1-(2,3-Difluorophenyl)-1H-tetrazol-5-yl)-5-(4,5,6,7-tetrahydrothieno[2,3-c]pyridin-2-yl)pyridin-2-amine]",≤ 100
5,CN(C)CCNC(=O)c1ccc(-c2cnc(N)c(-c3nnnn3-c3cccc(F)c3F)c2)cc1 [I-A-135],≤ 100
6,Nc1ncc(-c2cnn([C@@H]3CCOC3)c2)cc1-c1nnnn1-c1cccc(Cl)c1F [I-A-420],≤ 100
7,CC(=O)Nc1cccc(-c2cnc(N)c(-c3nnnn3-c3cccc(F)c3C)c2)c1 [I-A-564],100 to 1000
8,Nc1cccc(-c2cnc(N)c(-c3nncn3-c3cccc(F)c3F)n2)c1 [I-A-12],≤ 100
9,Nc1ncc(-c2cnn(CCN3CCCC3)c2)cc1-c1nnnn1-c1cccc(F)c1F [I-A-407],≤ 100
10,CN(C)Cc1ccc(-c2cnc(N)c(-c3nnnn3-c3cc(F)ccc3F)c2)cc1 [I-A-580],100 to 1000
11,Nc1ncc(-c2cccc(CO)c2)cc1-c1nnnn1-c1cccc(F)c1F [I-A-231],≤ 100
12,Nc1ncc(-c2cc(Cl)c(N)c(Cl)c2)cc1-c1nnnn1-c1cccc(F)c1F [I-A-287],≤ 100
13,Nc1ncc(-c2cnn(C3CCNCC3)c2)cc1-c1nnnn1-c1cccc(F)c1F [I-A-370],≤ 100
14,Nc1ncc(-c2cnn([C@H]3CCNC3)c2)nc1-c1nnnn1-c1cccc(F)c1F [I-A-536],≤ 100
15,CN(C)Cc1ccc(-c2cnc(N)c(-c3nnnn3-c3c(F)ccc(Cl)c3F)c2)cc1 [I-A-377],≤ 100
16,Nc1ncc(-c2cnc3[nH]ccc3c2)nc1-c1nncn1-c1cccc(F)c1F [I-A-13],≤ 100
17,Nc1ncc(-c2ccc(S(N)(=O)=O)s2)cc1-c1nnnn1-c1cccc(F)c1F [I-A-187],≤ 100
18,Nc1ncc(-c2cnn(CC(O)CO)c2)cc1-c1nnnn1-c1cccc(F)c1F (stereo not drawn) [I-A-368],≤ 100
19,CC(=O)Nc1cccc(-c2cnc(N)c(-c3nnnn3-c3cc(F)cc(F)c3Cl)c2)c1 [I-A-570],100 to 1000
20,COc1c(F)cccc1-n1nnnc1-c1cc(-c2cnn(C3CCNCC3)c2)cnc1N [I-A-638],100 to 1000
21,Nc1ncc(-c2ccc3c(c2)CC(=O)N3)cc1-c1nnnn1-c1cccc(F)c1F [I-A-188],≤ 100
22,Nc1ncc(C2=CCCNCC2)cc1-c1nnnn1-c1cccc(F)c1F [I-A-646],100 to 1000
23,Nc1ncc(-c2ccc(NC(=O)c3ccco3)cc2)cc1-c1nnnn1-c1cccc(F)c1F [I-A-162],100 to 1000

row,SMILES,Ki [nM]
1,N#CCC(=O)Nc1ccc(-c2cnc(N)c(-c3nnnn3-c3cccc(F)c3F)c2)cc1 [I-A-334],≤ 100
2,Nc1ncc(-c2cnn(C3CCN(CC4CCCC4)CC3)c2)cc1-c1nnnn1-c1cccc(Cl)c1F [I-A-474],≤ 100
3,Nc1ncc(-c2ccc(CN3CCOCC3)cc2)nc1-c1nnnn1-c1cccc(F)c1F [I-A-51],≤ 100
4,Nc1ncc(-c2cnn([C@@H]3CCNC3)c2)nc1-c1nnnn1-c1cccc(F)c1F [I-A-660],≤ 100
5,Nc1ncc(-c2ccc3c(c2)C(=O)C(=O)N3)cc1-c1nnnn1-c1cccc(F)c1F [I-A-204],≤ 100
6,Nc1ncc(-c2ccccc2)cc1-c1nnnn1-c1cccc(F)c1F [I-A-233],≤ 100
7,Nc1nc2cc(-c3cnc(N)c(-c4nnnn4-c4cccc(F)c4F)c3)c(F)cc2[nH]1 [I-A-141],≤ 100
8,Nc1ncc(-c2cnn(C3CCN(C4CCC4)CC3)c2)cc1-c1nnnn1-c1cccc(F)c1F [I-A-451],≤ 100
9,Nc1ncc(-c2nc3c(s2)CNCC3)cc1-c1nnnn1-c1cccc(Cl)c1F [I-A-533],100 to 1000
10,CCCN1CCC(n2cc(-c3cnc(N)c(-c4nnnn4-c4cccc(F)c4F)c3)cn2)CC1 [I-A-461],≤ 100
11,Nc1ncc(-c2cnn(CC(=O)O)c2)cc1-c1nnnn1-c1cccc(F)c1F [I-A-350],100 to 1000
12,Nc1ncc(-c2cccc3c2OCO3)cc1-c1nnnn1-c1cccc(F)c1F [I-A-305],≤ 100
13,Nc1ncc(-c2ccc(O)c(F)c2)cc1-c1nnnn1-c1cccc(F)c1F [I-A-295],≤ 100
14,Nc1ncc(-c2cnn([C@@H]3CCNC3)c2)cc1-c1nnnn1-c1cccc(Cl)c1F [I-A-538],≤ 100
15,Nc1ncc(-c2cn[nH]c2)cc1-c1nnnn1-c1cccc(F)c1F [I-A-366],≤ 100
16,Nc1ncc(-c2ccccc2Cl)cc1-c1nnnn1-c1cccc(F)c1F [I-A-224],100 to 1000
17,Nc1ncc(-c2cnn(C3CNC3)c2)cc1-c1nnnn1-c1cccc(F)c1F [I-A-426],≤ 100
18,Nc1ncc(-c2cccc([N+](=O)[O-])c2)cc1-c1nnnn1-c1cccc(F)c1F [I-A-239],≤ 100
19,Nc1ncc(-c2ccc(N3CCCC3)nc2)nc1-c1nncn1-c1cccc(F)c1F [I-A-4],100 to 1000
20,Nc1ncc(-c2cnn(Cc3ccccc3)c2)cc1-c1nnnn1-c1cccc(F)c1F [I-A-349],≤ 100
21,Nc1ncc(C2=CCN(C(=O)[C@H]3CCC(=O)N3)CC2)cc1-c1nnnn1-c1cccc(F)c1F [I-A-657],≤ 100
22,COc1ccc(OC)c(-c2cnc(N)c(-c3nnnn3-c3cccc(F)c3F)c2)c1 [I-A-306],100 to 1000
23,CC(=O)Nc1cccc(-c2cnc(N)c(-c3nnnn3-c3cccc(F)c3F)c2)c1 [I-A-139],≤ 100

# Second part, the molecule after the results:
row,Ki [nM],SMILES
1,≤ 100,Nc1ncc(-c2cnn(CCN3CCCC3)c2)cc1-c1nnnn1-c1cccc(Cl)c1Cl [I-A-411]
2,≤ 100,NCc1ccc(-c2cnc(N)c(-c3nnnn3-c3cccc(F)c3F)c2)cc1 [I-A-202]
3,100 to 1000,Cc1ccc(Cl)cc1-n1nnnc1-c1cc(-c2ccc(CN(C)C)cc2)cnc1N [I-A-579]
4,≤ 100,Nc1ncc(-c2ccc(CN3CCCC3)cc2)cc1-c1nnnn1-c1c(F)ccc(F)c1Cl [I-A-620]
5,≤ 100,CS(=O)(=O)NCc1ccc(-c2cnc(N)c(-c3nnnn3-c3cccc(F)c3F)c2)cc1 [I-A-192]
6,100 to 1000,Nc1ncc(-c2ccc(F)c(Cl)c2)cc1-c1nncn1-c1cccc(F)c1F [I-A-111]
7,≤ 100,CN(C)Cc1ccc(-c2cnc(N)c(-c3nnnn3-c3cccc(F)c3F)c2)cc1 [I-A-63]
8,100 to 1000,Nc1ncc(-c2ccncc2)cc1-c1nnnn1-c1cccc(Cl)c1Cl [I-A-84]
9,≤ 100,C[C@H](c1ccc(-c2cnc(N)c(-c3nnnn3-c3cccc(F)c3F)c2)cc1)N1CCCC1 [I-A-212]
10,≤ 100,Nc1ncc(-c2ccc(N3CCCC3)nc2)cc1-c1nnnn1-c1cccc(F)c1F [I-A-64]
11,≤ 100,Nc1ncc(-c2ccc(CN3CCC(O)CC3)cc2)cc1-c1nnnn1-c1cccc(Cl)c1Cl [I-A-97]
12,100 to 1000,CN1CCN(c2ccc(-c3cnc(N)c(-c4nccn4-c4cccc(Cl)c4Cl)c3)cc2)CC1 [I-A-402]
13,≤ 100,CCN1CCC(n2cc(-c3cnc(N)c(-c4nncn4-c4cccc(Cl)c4F)c3)cn2)CC1 [I-A-458]
14,≤ 100,"CN1CCN(Cc2ccc(-c3cnc(N)c(-c4nnnn4-c4cccc(F)c4F)c3)cc2)CC1 [I-A-62, 3-(1-(2,3-Difluorophenyl)-1H-tetrazol-5-yl)-5-(4-((4-methylpiperazin-1-yl)methyl)phenyl)pyridin-2-amine]"
15,100 to 1000,CC(=O)Nc1cccc(-c2cnc(N)c(-c3nncn3-c3cccc(Cl)c3Cl)c2)c1 [I-A-73]
16,≤ 100,Nc1ncc(-c2ccc(OCCO)cc2)cc1-c1nnnn1-c1cccc(F)c1F [I-A-283]
17,≤ 100,CN[C@@H](C)c1ccc(-c2cnc(N)c(-c3nnnn3-c3cccc(F)c3F)c2)cc1 [I-A-351]
18,≤ 100,Nc1ncc(-c2ccc(CN3CC[C@@H](O)C3)cc2)cc1-c1nnnn1-c1cccc(F)c1F [I-A-130]

row,Ki [nM],SMILES
1,100 to 1000,Cn1cc(-c2cccc(Cl)c2Cl)c(-c2cc(-c3cccnc3)cnc2N)n1 [I-B-16]
2,100 to 1000,CN(C)Cc1ccc(-c2cnc(N)c(-c3nnnn3-c3cccc(Cl)c3)c2)cc1 [I-A-358]
3,≤ 100,Nc1ncc(-c2cnn(C3CCN(CCO)CC3)c2)cc1-c1nnnn1-c1cccc(Cl)c1F [I-A-469]
4,≤ 100,Nc1ncc(-c2ccc(CN3CCCC3)cc2)cc1-c1nnnn1-c1c(F)ccc(F)c1F [I-A-380]
5,100 to 1000,Nc1ncc(-c2ccc(NC(=O)NC3CCCC3)cc2)cc1-c1nnnn1-c1cccc(F)c1F [I-A-333]
6,≤ 100,CC1CCCN1Cc1ccc(-c2cnc(N)c(-c3nnnn3-c3cccc(F)c3F)c2)cc1 (stereo not drawn) [I-A-209]
7,≤ 100,Nc1ncc(-c2cnn([C@H]3CCNC3)c2)cc1-c1nnnn1-c1cccc(Cl)c1Cl [I-A-413]
8,≤ 100,Nc1ncc(-c2ccc(CNC3CCC3)cc2)cc1-c1nnnn1-c1cccc(F)c1F [I-A-151]
9,100 to 1000,CN1CCOc2cc(-c3cnc(N)c(-c4nnnn4-c4cccc(F)c4F)c3)ccc21 [I-A-289]
10,100 to 1000,Nc1ncc(-c2ccc(NC(=O)c3cccs3)cc2)cc1-c1nnnn1-c1cccc(F)c1F [I-A-161]
11,100 to 1000,CN(CCc1ccccn1)Cc1ccc(-c2cnc(N)c(-c3nnnn3-c3cccc(Cl)c3Cl)c2)cc1 [I-A-102]
12,≤ 100,CC(=O)N1CCC(n2cc(-c3cnc(N)c(-c4nnnn4-c4cccc(Cl)c4F)c3)cn2)CC1 [I-A-399]
13,≤ 100,CC(C)CN(C)Cc1ccc(-c2cnc(N)c(-c3nnnn3-c3cccc(F)c3F)c2)cc1 [I-A-150]
14,≤ 100,CC(=O)N1CCC(n2cc(-c3cnc(N)c(-c4nncn4-c4cccc(Cl)c4F)c3)cn2)CC1 [I-A-450]
15,≤ 100,Nc1ncc(-c2ccc(-n3ccnc3)nc2)cc1-c1nnnn1-c1cccc(F)c1F [I-A-128]
16,≤ 100,Nc1ncc(-c2ccc(CN3CCCC3)cc2)cc1-c1nccn1-c1cccc(Cl)c1Cl [I-A-393]
17,≤ 100,Cn1cc(-c2cccc(Cl)c2Cl)c(-c2cc(-c3cnn(C4CCNCC4)c3)cnc2N)n1 [I-B-22]
